Laboratory results published in patent publication US6734193B1, “(1,2,3,4-tetrahydroquinolin-8-yl)-heptatrienoic acid derivatives having serum glucose reducing activity” (Allergan, Inc., priority 2003, dated 2004).
pEC50, pKi: −log10 of the molar value.

How the values were obtained:
[1] = target: T1, RXRβ (Homo sapiens, UniProt P28702); assay: holoreceptor transactivation assay, RXRβ; format: cell-based; conditions: for pEC50: holoreceptor assay, read-out: RXR Trans. EC50 β; for RXR Trans. efficacy β (in parentheses): percentage compared to the standard compound
T1 construct: expressed in transfected cells
T1 sequence (P28702 1-533): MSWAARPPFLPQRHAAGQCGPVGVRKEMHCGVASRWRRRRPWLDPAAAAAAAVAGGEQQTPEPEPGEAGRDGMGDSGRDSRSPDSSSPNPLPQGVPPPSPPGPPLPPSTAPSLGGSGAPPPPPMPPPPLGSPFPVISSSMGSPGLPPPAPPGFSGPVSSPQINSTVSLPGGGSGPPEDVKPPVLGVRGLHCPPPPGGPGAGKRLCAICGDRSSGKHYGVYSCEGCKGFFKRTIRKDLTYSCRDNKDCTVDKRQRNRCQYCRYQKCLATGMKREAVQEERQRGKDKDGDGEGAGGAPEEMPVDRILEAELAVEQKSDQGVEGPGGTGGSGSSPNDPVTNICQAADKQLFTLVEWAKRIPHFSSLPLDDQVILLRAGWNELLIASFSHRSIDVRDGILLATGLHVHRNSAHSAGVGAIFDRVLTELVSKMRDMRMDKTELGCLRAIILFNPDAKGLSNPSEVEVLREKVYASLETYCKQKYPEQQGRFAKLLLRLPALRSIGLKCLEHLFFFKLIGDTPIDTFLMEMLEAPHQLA
Source text: (§1) A holoreceptor transactivation assay and a ligand binding assay which measure the antagonist/agonist like activity of the compounds of the invention, or their ability to bind to the several retinoid receptor subtypes, respectively, are described in published PCT Application No. WO WO093/11755 (particularly on pages 30-33 and 37-41) published on Jun. 24, 1993, the specification of which is also incorporated herein by reference. A detailed experimental procedure for holoreceptor transactivations has been described by Heyman et al. Cell 68, 397-406, (1992); Allegretto et al. J. Biol. Chem. 268, 26625-26633, and Mangelsdorf et al. The Retinoids: Biology, Chemistry and Medicine, pp 319-349, Raven Press Ltd., New York, which are expressly incorporated herein by reference. The results obtained in this assay are expressed in EC50 numbers, as they are also in the chimeric receptor transactivation assay. The results of the ligand binding assay are expressed in Ki numbers. (See Cheng et al Biochemical Pharmacology Vol. 22 pp 3099-3108, expressly incorporated herein by reference.)
(§2) This standard compound is described in U.S. Pat. No. 6,114,533.
(§3) Table 1 discloses the activity of certain exemplary compounds of the invention in the above-described receptor transactivation and binding assays. Particularly, the transactivation data pertaining to activation of the RAR receptors were obtained in the chimeric assay, and the transactivation data pertaining to the activation of RXR receptors were obtained in the holoreceptor assay.

[2] = target: T2, RXRγ (Homo sapiens, UniProt P48443); assay: holoreceptor transactivation assay, RXRγ; format: cell-based; conditions: for pEC50: holoreceptor assay, read-out: RXR Trans. EC50 γ; for RXR Trans. efficacy γ (in parentheses): percentage compared to the standard compound
T2 construct: expressed in transfected cells
T2 sequence (P48443 1-463): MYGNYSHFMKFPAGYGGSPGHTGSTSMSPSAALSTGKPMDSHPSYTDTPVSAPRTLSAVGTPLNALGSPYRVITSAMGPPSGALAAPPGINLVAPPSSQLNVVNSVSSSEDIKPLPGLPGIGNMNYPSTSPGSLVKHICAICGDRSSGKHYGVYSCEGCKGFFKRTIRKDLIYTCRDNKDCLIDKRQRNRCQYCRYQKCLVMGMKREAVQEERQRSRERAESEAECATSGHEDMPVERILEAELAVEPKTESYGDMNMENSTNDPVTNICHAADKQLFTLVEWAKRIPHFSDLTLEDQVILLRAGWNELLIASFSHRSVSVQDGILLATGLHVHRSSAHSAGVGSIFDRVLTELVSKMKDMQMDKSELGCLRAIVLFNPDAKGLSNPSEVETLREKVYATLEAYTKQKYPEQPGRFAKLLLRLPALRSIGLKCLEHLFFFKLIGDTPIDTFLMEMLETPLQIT
Source text: as §1, §2, §3

[3] = target: T3, RARα (Homo sapiens, UniProt P10276); assay: ligand binding assay, RARα; conditions: read-out: RAR Bind. Ki α
T3 sequence (P10276 1-462): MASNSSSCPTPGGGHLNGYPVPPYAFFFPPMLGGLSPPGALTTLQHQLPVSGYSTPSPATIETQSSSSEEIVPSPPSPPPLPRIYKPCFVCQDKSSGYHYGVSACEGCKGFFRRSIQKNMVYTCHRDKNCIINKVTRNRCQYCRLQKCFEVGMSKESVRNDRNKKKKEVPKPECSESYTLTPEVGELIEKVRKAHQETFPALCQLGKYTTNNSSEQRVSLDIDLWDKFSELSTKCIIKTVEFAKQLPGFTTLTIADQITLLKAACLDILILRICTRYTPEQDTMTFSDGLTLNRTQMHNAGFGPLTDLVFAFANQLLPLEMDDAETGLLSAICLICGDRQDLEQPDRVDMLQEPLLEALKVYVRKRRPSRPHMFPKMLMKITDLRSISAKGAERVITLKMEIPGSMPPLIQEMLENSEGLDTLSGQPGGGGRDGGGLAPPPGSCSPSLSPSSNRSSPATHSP
Source text: as §1

[4] = target: T1, RXRβ; assay: ligand binding assay, RXRβ; conditions: read-out: RXR Bind Ki β
Source text: as §1

[5] = target: T4, RARβ (Homo sapiens, UniProt P10826); assay: ligand binding assay, RARβ; conditions: read-out: RAR Bind. Ki β
T4 sequence (P10826 1-455): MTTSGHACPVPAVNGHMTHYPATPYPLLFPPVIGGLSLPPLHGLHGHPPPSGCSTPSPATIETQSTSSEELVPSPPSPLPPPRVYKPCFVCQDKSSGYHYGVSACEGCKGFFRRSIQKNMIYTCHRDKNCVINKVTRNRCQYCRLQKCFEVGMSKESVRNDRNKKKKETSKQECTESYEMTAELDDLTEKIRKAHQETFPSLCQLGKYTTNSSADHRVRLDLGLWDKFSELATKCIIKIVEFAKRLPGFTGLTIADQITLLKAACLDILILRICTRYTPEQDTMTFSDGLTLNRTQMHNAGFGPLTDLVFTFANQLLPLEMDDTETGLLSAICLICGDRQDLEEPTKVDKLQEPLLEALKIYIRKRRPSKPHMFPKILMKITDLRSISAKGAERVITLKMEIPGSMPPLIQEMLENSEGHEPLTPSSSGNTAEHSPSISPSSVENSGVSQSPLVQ
Source text: as §1

[6] = target: T5, RXRα (Homo sapiens, UniProt P19793); assay: holoreceptor transactivation assay, RXRα; format: cell-based; conditions: for pEC50: holoreceptor assay, read-out: RXR Trans. EC50 α; for RXR Trans. efficacy α (in parentheses): percentage compared to the standard compound
T5 construct: expressed in transfected cells
T5 sequence (P19793 1-462): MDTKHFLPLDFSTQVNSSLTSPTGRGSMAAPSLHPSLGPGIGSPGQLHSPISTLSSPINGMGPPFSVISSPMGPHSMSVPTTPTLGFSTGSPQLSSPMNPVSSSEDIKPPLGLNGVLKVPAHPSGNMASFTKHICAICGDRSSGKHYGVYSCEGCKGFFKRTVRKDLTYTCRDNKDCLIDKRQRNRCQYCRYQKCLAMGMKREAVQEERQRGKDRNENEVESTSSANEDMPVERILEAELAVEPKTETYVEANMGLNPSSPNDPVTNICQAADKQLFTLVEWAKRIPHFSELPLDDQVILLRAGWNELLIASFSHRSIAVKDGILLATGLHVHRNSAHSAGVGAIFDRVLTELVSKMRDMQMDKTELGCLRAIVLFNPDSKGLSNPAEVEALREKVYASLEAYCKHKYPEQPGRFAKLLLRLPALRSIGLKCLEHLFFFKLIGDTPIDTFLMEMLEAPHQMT
Source text: as §1, §2, §3

[7] = target: T5, RXRα; assay: ligand binding assay, RXRα; conditions: read-out: RXR Bind Ki α
Source text: as §1

[8] = target: T6, RARγ (Homo sapiens, UniProt P13631); assay: ligand binding assay, RARγ; conditions: read-out: RAR Bind. Ki γ
T6 sequence (P13631 1-454): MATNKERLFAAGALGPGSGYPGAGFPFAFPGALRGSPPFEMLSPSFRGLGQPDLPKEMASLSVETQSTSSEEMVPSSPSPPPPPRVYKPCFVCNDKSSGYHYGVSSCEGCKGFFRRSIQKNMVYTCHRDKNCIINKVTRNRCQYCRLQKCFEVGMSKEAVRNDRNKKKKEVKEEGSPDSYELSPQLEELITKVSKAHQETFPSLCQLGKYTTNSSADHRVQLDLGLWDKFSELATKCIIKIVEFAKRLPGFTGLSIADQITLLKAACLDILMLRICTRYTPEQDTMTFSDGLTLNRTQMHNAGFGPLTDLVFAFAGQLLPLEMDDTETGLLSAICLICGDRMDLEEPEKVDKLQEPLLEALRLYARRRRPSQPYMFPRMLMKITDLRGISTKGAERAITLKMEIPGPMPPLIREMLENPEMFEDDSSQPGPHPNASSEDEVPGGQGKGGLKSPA
Source text: as §1

[9] = target: T2, RXRγ; assay: ligand binding assay, RXRγ; conditions: read-out: RXR Bind Ki γ
Source text: as §1

[10] = tested on: female diabetic db/db mice; assay: serum glucose, triglyceride and thyroxine levels in db/db mice; conditions: for Glucosc Day 0 / Triglycerides Day 0: Day 0 (pre-treatment)
Description: An assay described below tests the effect of compounds of the invention on serum glucose, tryglyceride and thyroxine levels in female 9-10 weeks old db/db mice.
Female diabetic db/db (9-10 weeks old) mice were maintained on standard laboratory food and treated by oral gavage with vehicle (corn oil), standard compound (2E,4E,1′S,2′S)-3-methyl-5-[2′-methyl-2′-(5,5,8,8-tetramethyl-5,6,7,8-tetrahydro-naphthalen-2-yl)-cyclopropyl]-penta-2,4-dienoic acid (5 mg/kg) or the test compound (5-100 mg/kg, as described in Table 2) daily for seven days at 8:00 AM. Blood samples (70 μl) were taken by orbital bleeding at 11:00 AM on day 0 (pre-treatment), day 3, and day 6. On day 7, a blood sample (700 μl) was taken at 11:00 AM and the animals were sacrificed. Glucose, triglyceride and thyroxine (T4) levels were determined on a Boehringer Manheim Hatachi Clinical Chemistry Analyzer using standard protocols provided by the manufacturer and reagents that were supplied in commercially available kits (glucose and T4: Boehringer Manheim; triglycerides: Roche Diagnostics). A NUMBER OF animals were treated in each group.

| SMILES | pEC50 [1] | RXR Trans. efficacy β (in parentheses) [1] | pEC50 [2] | RXR Trans. efficacy γ (in parentheses) [2] | pKi [3] | pKi [4] | pKi [5] | pEC50 [6] | RXR Trans. efficacy α (in parentheses) [6] | pKi [7] | pKi [8] | other results |
| --- | --- | --- | --- | --- | --- | --- | --- | --- | --- | --- | --- | --- |
| CCN1CCC(C)(C)c2cc(C(C)C)cc(\C(C)=C(F)/C=C/C(C)=C/C(=O)O)c21 [Compound 27, (2E,4E,6E)-7-(1-Ethyl-6-isopropyl-4,4-dimethyl-1,2,3,4-tetrahydro-quinolin-8-yl)-6-fluoro-3-methyl-octa-2,4,6-trienoic acid] | 9.30 | 77% | 10.00 | 75% | 6.17 | 7.96 | 6.08 | 10.00 | 74% | 9.00 | 5.60 | – |
| CC/C(=C(F)/C=C/C(C)=C/C(=O)O)c1cc(C(C)C)cc2c1N(CC)CCC2(C)C [Compound 28, (2E,4E,6E)-7-(1-Ethyl-6-isopropyl-4,4-dimethyl-1,2,3,4-tetrahydro-quinolin-8-yl)-6-fluoro-3-methyl-nona-2,4,6-trienoic acid] | 9.40 | 66% | 9.52 | 75% | 6.15 | 7.68 | 6.37 | 9.52 | 86% | 8.70 | 5.70 | pKi [9]: 7.68 |
| CCCN1CCC(C)(C)c2cc(C(C)C)cc(\C(C)=C(F)/C=C/C(C)=C/C(=O)O)c21 [Compound 29, (2E,4E,6E)-6-Fluoro-7-(6-isopropyl-4,4-dimethyl-1-propyl-1,2,3,4-tetrahydro-quinolin-8-yl)-3-methyl-octa-2,4,6-trienoic acid] | 8.22 | 27% | 8.70 | 10% | 6.32 | 7.82 | 6.35 | 8.70 | 32% | 9.00 | 5.85 | Glucosc Day 0 ([10]; 50 mg/kg oral gavage daily): 523 ± 84 mg/dL; Triglycerides Day 0 ([10]; 50 mg/kg oral gavage daily): 316 ± 339 mg/dL; Glucosc Day 3, 3h ([10]; 50 mg/kg oral gavage daily): 476 ± 96 mg/dL; Triglycerides Day 3, 3h ([10]; 50 mg/kg oral gavage daily): 326 ± 111 mg/dL; Glucosc Day 6, 3h ([10]; 50 mg/kg oral gavage daily): 441 ± 184 mg/dL |
| CC(/C=C/[C@@H]1C[C@]1(C)c1ccc2c(c1)C(C)(C)CCC2(C)C)=C\C(=O)O [Standard compound, (2E,4E,1′S,2′S)-3-methyl-5-[2′-methyl-2′-(5,5,8,8-tetramethyl-5,6,7,8-tetrahydro-naphthalen-2-yl)-cyclopropyl]-penta-2,4-dienoic acid] | – | – | – | – | – | – | – | – | – | – | – | Glucosc Day 0 ([10]; 4 mg/kg oral gavage daily): 524 ± 45 mg/dL; Triglycerides Day 0 ([10]; 4 mg/kg oral gavage daily): 273 ± 66 mg/dL; Glucosc Day 3, 3h ([10]; 4 mg/kg oral gavage daily): 512 ± 156 mg/dL; Triglycerides Day 3, 3h ([10]; 4 mg/kg oral gavage daily): 755 ± 464 mg/dL; Glucosc Day 6, 3h ([10]; 4 mg/kg oral gavage daily): 459 ± 148 mg/dL; T4 Day 7 ([10]; 4 mg/kg oral gavage daily, Day 7): 1.4 ± 0.5 µg/dL |
